The values below come from ChEMBL document CHEMBL1156615, “Nakijiquinones G-I, new sesquiterpenoid quinones from marine sponge” (Bioorg Med Chem, 2008).

Values after ≈ are worked out from the molar mass of the structure shown. Active and inactive are the calls of the source. The calls are words filed in the database; no cut-off is given here. Bounds are passed on as bounds.

One assay has as its system Bacillus subtilis. In words: Antibacterial activity against Bacillus subtilis. It counts as functional.
The subject of the next assay is Escherichia coli. Briefly: Antibacterial activity against Escherichia coli. It counts as functional.
The next assay relates to Micrococcus luteus. In words: Antibacterial activity against Micrococcus luteus. It counts as functional.
For another assay, the system named is Staphylococcus aureus. In words: Antibacterial activity against Staphylococcus aureus. The format is functional.
A further assay has as its system Cryptococcus neoformans. Briefly: Antifungal activity against Cryptococcus neoformans. The format is functional.
In a further assay the test system is Candida albicans. Briefly: Antifungal activity against Candida albicans. The format is functional.
A further assay concerns Aspergillus niger. In words: Antifungal activity against Aspergillus niger. It counts as functional.
The subject of the next assay is P388. Briefly: Cytotoxicity against mouse P388 cells. It counts as functional, cell-based.
The subject of another assay is L1210. Briefly: Cytotoxicity against mouse L1210 cells. The format is functional, cell-based.
In the next assay the test system is KB. In words: Cytotoxicity against human KB cells. It counts as functional, cell-based.
Assay [1] addresses Receptor tyrosine-protein kinase erbB-2 (Homo sapiens) (UniProt P04626). Briefly: Inhibition of HER2.

The term MIC denotes the lowest concentration that inhibits growth of the organism. A higher MIC goes with a less susceptible organism. The term IC50 denotes the midpoint of a concentration-inhibition curve. Read a high IC50 as weaker potency.

Receptor tyrosine-protein kinase erbB-2 (Homo sapiens), sequence (P04626 whole entry): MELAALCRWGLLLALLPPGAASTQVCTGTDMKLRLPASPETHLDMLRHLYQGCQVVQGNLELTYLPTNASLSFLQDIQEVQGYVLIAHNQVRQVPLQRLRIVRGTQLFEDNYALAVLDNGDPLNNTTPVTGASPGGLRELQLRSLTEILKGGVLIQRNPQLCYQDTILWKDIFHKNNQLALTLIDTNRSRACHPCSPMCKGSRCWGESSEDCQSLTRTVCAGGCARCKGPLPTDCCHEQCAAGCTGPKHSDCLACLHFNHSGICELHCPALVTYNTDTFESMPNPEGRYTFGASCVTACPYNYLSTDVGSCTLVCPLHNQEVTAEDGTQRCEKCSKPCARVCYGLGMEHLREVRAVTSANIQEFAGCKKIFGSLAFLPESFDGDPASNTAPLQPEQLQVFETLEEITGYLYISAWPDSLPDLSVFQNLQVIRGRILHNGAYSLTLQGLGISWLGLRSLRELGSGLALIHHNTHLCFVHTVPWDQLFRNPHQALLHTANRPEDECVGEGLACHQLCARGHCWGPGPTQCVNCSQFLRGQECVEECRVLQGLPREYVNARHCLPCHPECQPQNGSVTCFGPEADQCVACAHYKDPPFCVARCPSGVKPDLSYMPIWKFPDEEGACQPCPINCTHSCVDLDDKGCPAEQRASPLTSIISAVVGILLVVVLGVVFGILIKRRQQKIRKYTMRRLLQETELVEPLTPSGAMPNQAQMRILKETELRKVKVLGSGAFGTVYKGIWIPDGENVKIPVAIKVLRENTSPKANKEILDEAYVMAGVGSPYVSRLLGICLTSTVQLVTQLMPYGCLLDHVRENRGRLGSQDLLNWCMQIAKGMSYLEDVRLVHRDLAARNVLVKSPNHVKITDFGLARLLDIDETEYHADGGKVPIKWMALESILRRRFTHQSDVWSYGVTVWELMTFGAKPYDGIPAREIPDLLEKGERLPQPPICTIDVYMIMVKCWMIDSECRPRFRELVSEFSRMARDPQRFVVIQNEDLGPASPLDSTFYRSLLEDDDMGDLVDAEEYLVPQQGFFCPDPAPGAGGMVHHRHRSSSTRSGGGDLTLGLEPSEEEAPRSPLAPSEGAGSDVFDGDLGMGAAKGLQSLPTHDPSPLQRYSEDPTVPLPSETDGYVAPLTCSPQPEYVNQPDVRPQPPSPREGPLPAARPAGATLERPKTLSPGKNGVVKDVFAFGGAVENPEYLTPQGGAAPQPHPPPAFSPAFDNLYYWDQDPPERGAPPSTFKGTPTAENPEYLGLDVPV

On to `CC1=CCC[C@H]2[C@](C)(CC3=C(O)C(=O)C=C(NCCCCNC(=N)N)C3=O)[C@@H](C)CC[C@]12C` [NAKIJIQUINONES H], for which the minimum inhibitory concentration (MIC) was 33.3 µg/mL (≈ 72.9 µM) with Bacillus subtilis; more than 33.3 µg/mL in the assay on Escherichia coli; 16.7 µg/mL (≈ 36.6 µM) in the assay on Micrococcus luteus; 33.3 µg/mL (≈ 72.9 µM) in the assay on Staphylococcus aureus; 8.35 µg/mL (≈ 18.3 µM) against Cryptococcus neoformans; 8.35 µg/mL (≈ 18.3 µM) against Candida albicans. In the assay with Aspergillus niger, inhibition of growth (MIC) required 16.7 µg/mL (≈ 36.6 µM). Besides, the half-maximal inhibitory concentration (IC50) in the assay with P388 is 2.4 µg/mL (≈ 5.26 µM); in the assay on L1210, 8.5 µg/mL (≈ 18.6 µM); in the assay with KB, more than 10 µg/mL. For the same compound, the result in assay [1] was Active.

Turning to `CC1=CCC[C@H]2[C@](C)(CC3=C(O)C(=O)C=C(NCCC[S+](C)[O-])C3=O)[C@@H](C)CC[C@]12C` (stereo partly drawn) [NAKIJIQUINONE I], the minimum inhibitory concentration (MIC) is more than 33.3 µg/mL against Bacillus subtilis; more than 33.3 µg/mL in the assay with Escherichia coli; 33.3 µg/mL (≈ 74.4 µM) in the assay with Micrococcus luteus; more than 33.3 µg/mL in the assay with Staphylococcus aureus; more than 33.3 µg/mL in the assay with Cryptococcus neoformans; more than 33.3 µg/mL with Candida albicans. The same compound returned a minimal inhibitory concentration (MIC) against Aspergillus niger of more than 33.3 µg/mL. For the same compound, the half-inhibitory concentration (IC50) in the assay with P388 was found to be 2.9 µg/mL (≈ 6.48 µM); in the assay with L1210, 2.4 µg/mL (≈ 5.36 µM); in the assay with KB it was 5.6 µg/mL (≈ 12.5 µM). Besides, the result in assay [1] was Active.

Take `CC1=CCC[C@H]2[C@](C)(CC3=C(O)C(=O)C=C(NCCc4cnc[nH]4)C3=O)[C@@H](C)CC[C@]12C` [NAKIJIQUINONES G]: the minimum inhibitory concentration (MIC) against Bacillus subtilis is 33.3 µg/mL (≈ 76.1 µM); in the assay on Escherichia coli it was more than 33.3 µg/mL; against Micrococcus luteus it was 33.3 µg/mL (≈ 76.1 µM); in the assay on Staphylococcus aureus, 33.3 µg/mL (≈ 76.1 µM); with Cryptococcus neoformans, more than 33.3 µg/mL; in the assay on Candida albicans it was more than 33.3 µg/mL. Also, the minimum inhibitory concentration (MIC) against Aspergillus niger was more than 33.3 µg/mL. For the same compound, the results for the concentration for half-maximal inhibition (IC50) with P388, in the assay on L1210 and with KB were 3.2 µg/mL (≈ 7.31 µM), 2.9 µg/mL (≈ 6.63 µM) and 4.8 µg/mL (≈ 11 µM), respectively. Further, the result in assay [1] was Active.
